Columns and labels:
Test in all cases: SILAC proteomics / in-gel fluorescence, competition of probe 13-t labeling by 3a
[1] = molecular target: proteins of HEK293T cells transiently overexpressing caspase-6 (Homo sapiens, UniProt P62280); conditions: Comp; protein RPS11 P62280
Procedure: (§1) Cells were lysed, and heavy and light SILAC lysates were combined in a 1:1 ratio and subjected to CuAAC reaction with azido-biotin to biotinylate probe-labeled proteins for subsequent capture on streptavidin-coated beads. Bead-bound proteins were split for analysis by in-gel fluorescence and tryptic digestion on-bead for LC–MS/MS analysis.
(§2) SILAC labeling and alkyne probe treatment: HEK293T cells were seeded into 8x 15 cm plates at
(§3) a density of 500,000 cells/plate. 4 of these plates were grown in light SILAC DMEM and 4 were
(§4) grown in heavy SILAC DMEM all containing 10% FBS and 4.5g/L glucose. The next day, all 8
(§5) plates were transfected with a pCMV6-Entry plasmid coding for caspase-6-myc-DDK lacking the
(§6) prodomain. After 24 hours, media was replaced with fresh SILAC growth media containing 4.5 g/L
(§7) glucose and 3% FBS. 24 hours later the plates were treated with probe and inhibitor for 1 hours as
(§8) follows: 2 of the light plates were treated with vehicle, 2 light plates and 2 heavy plates treated with
(§9) for 60 minutes. After treatment, media was removed, and cells were washed with 15 mL PBS for 5
(§10) minutes. Cells were then harvested by scraping in cold PBS and lysed in the presence of Roche
(§11) complete protease inhibitors. Lysates were clarified by centrifugation at 10,000xg for 10 minutes and
(§12) the protein in the supernatant was quantified by BCA assay.
(§13) Proteomics assay: 1 mg of each lysate was diluted to 2mg/ml in PBS with Roche complete protease
(§14) inhibitors. To this was added 0.1 mM biotin-azide, 1 mM tris(2-carboxyethyl)phosphine (TCEP), 0.1
(§15) mM Tris((1-benzyl-4-triazolyl)methyl)amine (TBTA) ligand, and 1 mM CuSO4 in a final volume of
(§16) 0.5 mL. The reaction was incubated at room temperature for 1 hour and was vortexed every 15
(§17) minutes. After 1 hour, proteins are precipitated and are pelleted by centrifuging at 16,000xg for 4
(§18) min at 4 °C. The supernatants were discarded, and the pellets were solubilized with 0.5 mL cold
(§19) The cold methanol wash was then repeated, and the washed
(§20) pellets were resuspended in 1 mL of 1.2% SDS and sonicated until clear. The samples were heat
(§21) denatured at 80-90 °C for 5 minutes and any insoluble particles were removed by centrifugation at
(§22) 6,500xg for 5 minutes. The 1 mL supernatant was transferred to a 15 mL conical tubes containing 5
(§23) mL of PBS and 150 µL of washed neutravidin beads were added. The samples were incubated for 2
(§24) hours at 4 °C while rotating, at which point the samples were warmed to resolubilize any precipitated
(§25) SDS. The beads were pelleted by centrifugation at 1400xg for 3 min and washed for 10 minutes with
(§26) the following solutions: 2x 1% NP-40, 2x PBS + 1 M NaCl, and 2x 50 mM ammonium bicarbonate
(§27) (ABC) + 2 M urea. The beads were then transferred to a 1.5 mL microcentrifuge tube using 2x250
(§28) µL 100 mM Tris pH 8.0 + 4 M Guanidium hydrochloride (final volume 500 µL).

[2] = molecular target: proteins of HEK293T cells transiently overexpressing caspase-6 (Homo sapiens, UniProt P12004); conditions: Comp; protein PCNA P12004
Procedure: as §1, §2, §3, §4, §5, §6, §7, §8, §9, §10, §11, §12, §13, §14, §15, §16, §17, §18, §19, §20, §21, §22, §23, §24, §25, §26, §27, §28

[3] = molecular target: proteins of HEK293T cells transiently overexpressing caspase-6 (Homo sapiens, UniProt P15880); conditions: Comp; protein RPS2 P15880
Procedure: as §1, §2, §3, §4, §5, §6, §7, §8, §9, §10, §11, §12, §13, §14, §15, §16, §17, §18, §19, §20, §21, §22, §23, §24, §25, §26, §27, §28

[4] = molecular target: proteins of HEK293T cells transiently overexpressing caspase-6 (Homo sapiens, UniProt P63104); conditions: Comp; protein YWHAZ P63104
Procedure: as §1, §2, §3, §4, §5, §6, §7, §8, §9, §10, §11, §12, §13, §14, §15, §16, §17, §18, §19, §20, §21, §22, §23, §24, §25, §26, §27, §28

[5] = molecular target: proteins of HEK293T cells transiently overexpressing caspase-6 (Homo sapiens, UniProt P62241); conditions: Comp; protein RPS8 P62241
Procedure: as §1, §2, §3, §4, §5, §6, §7, §8, §9, §10, §11, §12, §13, §14, §15, §16, §17, §18, §19, §20, §21, §22, §23, §24, §25, §26, §27, §28

[6] = molecular target: proteins of HEK293T cells transiently overexpressing caspase-6 (Homo sapiens, UniProt P07437); conditions: Comp; protein TUBB P07437
Chain of proteins of HEK293T cells transiently overexpressing caspase-6 (Homo sapiens, UniProt P07437) (P07437 whole entry): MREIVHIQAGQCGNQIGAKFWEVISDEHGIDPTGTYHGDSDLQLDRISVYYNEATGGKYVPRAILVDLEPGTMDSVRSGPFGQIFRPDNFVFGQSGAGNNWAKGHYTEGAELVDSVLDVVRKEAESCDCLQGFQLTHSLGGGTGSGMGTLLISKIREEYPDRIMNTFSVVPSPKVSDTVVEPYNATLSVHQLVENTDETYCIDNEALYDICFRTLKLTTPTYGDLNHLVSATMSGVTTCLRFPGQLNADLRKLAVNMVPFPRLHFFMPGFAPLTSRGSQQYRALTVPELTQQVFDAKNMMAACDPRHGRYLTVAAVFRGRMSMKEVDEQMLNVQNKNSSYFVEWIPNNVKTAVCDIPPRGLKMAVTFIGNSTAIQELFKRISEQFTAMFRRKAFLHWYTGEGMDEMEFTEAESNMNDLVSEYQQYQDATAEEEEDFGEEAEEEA
Procedure: as §1, §2, §3, §4, §5, §6, §7, §8, §9, §10, §11, §12, §13, §14, §15, §16, §17, §18, §19, §20, §21, §22, §23, §24, §25, §26, §27, §28

[7] = molecular target: proteins of HEK293T cells transiently overexpressing caspase-6 (Homo sapiens, UniProt P31946); conditions: Comp; protein YWHAB P31946
Procedure: as §1, §2, §3, §4, §5, §6, §7, §8, §9, §10, §11, §12, §13, §14, §15, §16, §17, §18, §19, §20, §21, §22, §23, §24, §25, §26, §27, §28

[8] = molecular target: proteins of HEK293T cells transiently overexpressing caspase-6 (Homo sapiens, UniProt P27635); conditions: Comp; protein RPL10 P27635
Procedure: as §1, §2, §3, §4, §5, §6, §7, §8, §9, §10, §11, §12, §13, §14, §15, §16, §17, §18, §19, §20, §21, §22, §23, §24, §25, §26, §27, §28

[9] = molecular target: proteins of HEK293T cells transiently overexpressing caspase-6 (Homo sapiens, UniProt Q9BZZ5); conditions: Comp; protein API5 Q9BZZ5
Chain of proteins of HEK293T cells transiently overexpressing caspase-6 (Homo sapiens, UniProt Q9BZZ5) (Q9BZZ5 whole entry): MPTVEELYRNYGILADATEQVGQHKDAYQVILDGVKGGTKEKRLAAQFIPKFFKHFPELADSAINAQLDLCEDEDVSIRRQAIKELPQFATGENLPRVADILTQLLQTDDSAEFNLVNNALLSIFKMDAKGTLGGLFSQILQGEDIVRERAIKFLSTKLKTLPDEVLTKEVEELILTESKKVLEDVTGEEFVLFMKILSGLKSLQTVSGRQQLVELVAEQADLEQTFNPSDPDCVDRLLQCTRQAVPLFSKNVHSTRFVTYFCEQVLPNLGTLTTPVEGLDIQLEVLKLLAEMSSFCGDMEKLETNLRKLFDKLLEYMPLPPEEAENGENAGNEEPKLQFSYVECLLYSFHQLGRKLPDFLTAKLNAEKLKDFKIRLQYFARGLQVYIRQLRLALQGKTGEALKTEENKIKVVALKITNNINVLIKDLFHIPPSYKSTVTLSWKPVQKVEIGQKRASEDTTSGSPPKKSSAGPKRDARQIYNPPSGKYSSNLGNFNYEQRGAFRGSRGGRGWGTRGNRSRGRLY
Procedure: as §1, §2, §3, §4, §5, §6, §7, §8, §9, §10, §11, §12, §13, §14, §15, §16, §17, §18, §19, §20, §21, §22, §23, §24, §25, §26, §27, §28

[10] = molecular target: proteins of HEK293T cells transiently overexpressing caspase-6 (Homo sapiens, UniProt P54886); conditions: Comp; protein ALDH18A1 P54886
Procedure: as §1, §2, §3, §4, §5, §6, §7, §8, §9, §10, §11, §12, §13, §14, §15, §16, §17, §18, §19, §20, §21, §22, §23, §24, §25, §26, §27, §28

[11] = molecular target: proteins of HEK293T cells transiently overexpressing caspase-6 (Homo sapiens, UniProt P62753); conditions: Comp; protein RPS6 P62753
Procedure: as §1, §2, §3, §4, §5, §6, §7, §8, §9, §10, §11, §12, §13, §14, §15, §16, §17, §18, §19, §20, §21, §22, §23, §24, §25, §26, §27, §28

[12] = molecular target: proteins of HEK293T cells transiently overexpressing caspase-6 (Homo sapiens, UniProt P11142); conditions: Comp; protein HSPA8 P11142
Procedure: as §1, §2, §3, §4, §5, §6, §7, §8, §9, §10, §11, §12, §13, §14, §15, §16, §17, §18, §19, §20, §21, §22, §23, §24, §25, §26, §27, §28

[13] = molecular target: proteins of HEK293T cells transiently overexpressing caspase-6 (Homo sapiens, UniProt P12277); conditions: Comp; protein CKB P12277
Procedure: as §1, §2, §3, §4, §5, §6, §7, §8, §9, §10, §11, §12, §13, §14, §15, §16, §17, §18, §19, §20, §21, §22, §23, §24, §25, §26, §27, §28

[14] = molecular target: proteins of HEK293T cells transiently overexpressing caspase-6 (Homo sapiens, UniProt Q13148); conditions: Comp; protein TARDBP Q13148
Chain of proteins of HEK293T cells transiently overexpressing caspase-6 (Homo sapiens, UniProt Q13148) (Q13148 whole entry): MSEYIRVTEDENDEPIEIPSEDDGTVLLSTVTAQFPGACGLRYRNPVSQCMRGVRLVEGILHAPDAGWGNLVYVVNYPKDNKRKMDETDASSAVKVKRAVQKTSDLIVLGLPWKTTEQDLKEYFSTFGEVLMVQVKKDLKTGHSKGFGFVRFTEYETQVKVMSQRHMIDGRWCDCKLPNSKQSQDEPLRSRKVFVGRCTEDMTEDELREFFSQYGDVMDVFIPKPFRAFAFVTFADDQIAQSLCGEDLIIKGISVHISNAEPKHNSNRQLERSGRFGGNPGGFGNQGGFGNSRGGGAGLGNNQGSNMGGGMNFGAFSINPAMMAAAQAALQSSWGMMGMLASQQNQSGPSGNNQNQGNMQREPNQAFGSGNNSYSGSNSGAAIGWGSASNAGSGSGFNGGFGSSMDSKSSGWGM
Procedure: as §1, §2, §3, §4, §5, §6, §7, §8, §9, §10, §11, §12, §13, §14, §15, §16, §17, §18, §19, §20, §21, §22, §23, §24, §25, §26, §27, §28

[15] = molecular target: proteins of HEK293T cells transiently overexpressing caspase-6 (Homo sapiens, UniProt P13667); conditions: Comp; protein PDIA4 P13667
Chain of proteins of HEK293T cells transiently overexpressing caspase-6 (Homo sapiens, UniProt P13667) (P13667 21-645): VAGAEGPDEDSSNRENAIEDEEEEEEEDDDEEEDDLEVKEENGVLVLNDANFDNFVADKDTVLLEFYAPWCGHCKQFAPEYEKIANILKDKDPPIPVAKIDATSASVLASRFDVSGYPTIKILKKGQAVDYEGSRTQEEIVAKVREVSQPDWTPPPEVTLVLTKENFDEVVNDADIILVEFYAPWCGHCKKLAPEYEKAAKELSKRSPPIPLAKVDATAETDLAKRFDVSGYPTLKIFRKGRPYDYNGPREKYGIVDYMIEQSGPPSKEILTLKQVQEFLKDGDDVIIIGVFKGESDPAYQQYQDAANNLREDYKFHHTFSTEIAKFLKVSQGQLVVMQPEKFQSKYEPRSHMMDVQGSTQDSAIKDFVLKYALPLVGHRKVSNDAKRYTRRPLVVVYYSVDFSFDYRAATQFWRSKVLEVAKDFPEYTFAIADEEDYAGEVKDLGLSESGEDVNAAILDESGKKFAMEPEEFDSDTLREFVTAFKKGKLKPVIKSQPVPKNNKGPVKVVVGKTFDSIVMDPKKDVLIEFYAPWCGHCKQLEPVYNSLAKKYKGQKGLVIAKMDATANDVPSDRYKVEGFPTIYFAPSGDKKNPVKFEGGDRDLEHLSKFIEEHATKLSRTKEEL
Procedure: as §1, §2, §3, §4, §5, §6, §7, §8, §9, §10, §11, §12, §13, §14, §15, §16, §17, §18, §19, §20, §21, §22, §23, §24, §25, §26, §27, §28

[16] = molecular target: proteins of HEK293T cells transiently overexpressing caspase-6 (Homo sapiens, UniProt P52209); conditions: Comp; protein PGD P52209
Procedure: as §1, §2, §3, §4, §5, §6, §7, §8, §9, §10, §11, §12, §13, §14, §15, §16, §17, §18, §19, §20, §21, §22, §23, §24, §25, §26, §27, §28

[17] = molecular target: proteins of HEK293T cells transiently overexpressing caspase-6 (Homo sapiens, UniProt P39748); conditions: Comp; protein FEN1 P39748
Chain of proteins of HEK293T cells transiently overexpressing caspase-6 (Homo sapiens, UniProt P39748) (P39748 whole entry): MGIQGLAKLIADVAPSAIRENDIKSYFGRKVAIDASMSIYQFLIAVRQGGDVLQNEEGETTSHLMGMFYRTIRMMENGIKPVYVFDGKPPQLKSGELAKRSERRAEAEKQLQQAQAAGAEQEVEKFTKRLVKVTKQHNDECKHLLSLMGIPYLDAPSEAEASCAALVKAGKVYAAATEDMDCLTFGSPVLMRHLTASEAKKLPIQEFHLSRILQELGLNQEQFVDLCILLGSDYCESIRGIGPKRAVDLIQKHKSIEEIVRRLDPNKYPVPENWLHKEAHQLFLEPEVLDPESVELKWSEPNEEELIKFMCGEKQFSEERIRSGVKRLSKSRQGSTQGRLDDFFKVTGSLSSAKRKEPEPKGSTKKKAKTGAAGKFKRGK
Procedure: as §1, §2, §3, §4, §5, §6, §7, §8, §9, §10, §11, §12, §13, §14, §15, §16, §17, §18, §19, §20, §21, §22, §23, §24, §25, §26, §27, §28

[18] = molecular target: proteins of HEK293T cells transiently overexpressing caspase-6 (Homo sapiens, UniProt Q13151); conditions: Comp; protein HNRNPA0 Q13151
Chain of proteins of HEK293T cells transiently overexpressing caspase-6 (Homo sapiens, UniProt Q13151) (Q13151 whole entry): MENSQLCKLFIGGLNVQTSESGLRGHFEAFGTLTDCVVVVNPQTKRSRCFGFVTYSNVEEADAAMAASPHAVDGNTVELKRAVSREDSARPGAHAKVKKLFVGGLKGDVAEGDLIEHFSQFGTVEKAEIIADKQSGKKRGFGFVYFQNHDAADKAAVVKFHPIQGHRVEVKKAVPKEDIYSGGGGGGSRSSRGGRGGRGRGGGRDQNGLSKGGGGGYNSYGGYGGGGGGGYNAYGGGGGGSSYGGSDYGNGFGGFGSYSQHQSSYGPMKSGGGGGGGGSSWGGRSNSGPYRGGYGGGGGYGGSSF
Procedure: as §1, §2, §3, §4, §5, §6, §7, §8, §9, §10, §11, §12, §13, §14, §15, §16, §17, §18, §19, §20, §21, §22, §23, §24, §25, §26, §27, §28

[19] = molecular target: proteins of HEK293T cells transiently overexpressing caspase-6 (Homo sapiens, UniProt Q15393); conditions: Comp; protein SF3B3 Q15393
Chain of proteins of HEK293T cells transiently overexpressing caspase-6 (Homo sapiens, UniProt Q15393) (Q15393 whole entry): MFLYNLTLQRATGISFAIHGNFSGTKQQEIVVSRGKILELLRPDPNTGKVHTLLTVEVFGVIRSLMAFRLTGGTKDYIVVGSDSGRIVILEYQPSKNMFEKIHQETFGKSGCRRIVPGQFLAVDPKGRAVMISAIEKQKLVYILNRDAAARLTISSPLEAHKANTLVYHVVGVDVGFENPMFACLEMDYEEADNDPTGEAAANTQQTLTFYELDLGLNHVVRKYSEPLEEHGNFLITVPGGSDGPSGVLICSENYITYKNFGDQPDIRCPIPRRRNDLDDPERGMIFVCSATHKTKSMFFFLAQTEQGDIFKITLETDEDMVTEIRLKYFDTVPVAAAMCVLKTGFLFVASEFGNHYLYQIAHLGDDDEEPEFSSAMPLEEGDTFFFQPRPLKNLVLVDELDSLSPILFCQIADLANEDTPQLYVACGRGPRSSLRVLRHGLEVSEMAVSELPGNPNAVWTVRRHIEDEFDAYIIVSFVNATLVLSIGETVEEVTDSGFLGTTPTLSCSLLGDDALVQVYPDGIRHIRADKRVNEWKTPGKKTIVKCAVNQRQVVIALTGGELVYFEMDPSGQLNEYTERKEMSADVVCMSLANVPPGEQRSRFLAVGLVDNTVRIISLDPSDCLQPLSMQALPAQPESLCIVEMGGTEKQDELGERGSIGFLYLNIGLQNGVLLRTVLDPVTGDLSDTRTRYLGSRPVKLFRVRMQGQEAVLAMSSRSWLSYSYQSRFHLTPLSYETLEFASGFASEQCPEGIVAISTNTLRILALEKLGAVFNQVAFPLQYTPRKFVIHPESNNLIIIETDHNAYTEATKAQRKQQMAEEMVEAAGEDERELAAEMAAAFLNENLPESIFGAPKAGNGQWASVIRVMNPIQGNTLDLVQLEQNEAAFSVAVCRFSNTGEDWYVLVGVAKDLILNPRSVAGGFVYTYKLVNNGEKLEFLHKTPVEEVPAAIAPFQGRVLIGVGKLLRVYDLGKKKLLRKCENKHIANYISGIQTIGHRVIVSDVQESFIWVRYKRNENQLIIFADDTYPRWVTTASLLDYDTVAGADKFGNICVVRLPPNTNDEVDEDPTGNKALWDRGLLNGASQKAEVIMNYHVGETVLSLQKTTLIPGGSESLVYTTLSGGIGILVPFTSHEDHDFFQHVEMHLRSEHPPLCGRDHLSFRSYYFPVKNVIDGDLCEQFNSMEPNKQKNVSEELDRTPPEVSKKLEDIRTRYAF
Procedure: as §1, §2, §3, §4, §5, §6, §7, §8, §9, §10, §11, §12, §13, §14, §15, §16, §17, §18, §19, §20, §21, §22, §23, §24, §25, §26, §27, §28

[20] = molecular target: proteins of HEK293T cells transiently overexpressing caspase-6 (Homo sapiens, UniProt Q9NR30); conditions: Comp; protein DDX21 Q9NR30
Chain of proteins of HEK293T cells transiently overexpressing caspase-6 (Homo sapiens, UniProt Q9NR30) (Q9NR30 whole entry): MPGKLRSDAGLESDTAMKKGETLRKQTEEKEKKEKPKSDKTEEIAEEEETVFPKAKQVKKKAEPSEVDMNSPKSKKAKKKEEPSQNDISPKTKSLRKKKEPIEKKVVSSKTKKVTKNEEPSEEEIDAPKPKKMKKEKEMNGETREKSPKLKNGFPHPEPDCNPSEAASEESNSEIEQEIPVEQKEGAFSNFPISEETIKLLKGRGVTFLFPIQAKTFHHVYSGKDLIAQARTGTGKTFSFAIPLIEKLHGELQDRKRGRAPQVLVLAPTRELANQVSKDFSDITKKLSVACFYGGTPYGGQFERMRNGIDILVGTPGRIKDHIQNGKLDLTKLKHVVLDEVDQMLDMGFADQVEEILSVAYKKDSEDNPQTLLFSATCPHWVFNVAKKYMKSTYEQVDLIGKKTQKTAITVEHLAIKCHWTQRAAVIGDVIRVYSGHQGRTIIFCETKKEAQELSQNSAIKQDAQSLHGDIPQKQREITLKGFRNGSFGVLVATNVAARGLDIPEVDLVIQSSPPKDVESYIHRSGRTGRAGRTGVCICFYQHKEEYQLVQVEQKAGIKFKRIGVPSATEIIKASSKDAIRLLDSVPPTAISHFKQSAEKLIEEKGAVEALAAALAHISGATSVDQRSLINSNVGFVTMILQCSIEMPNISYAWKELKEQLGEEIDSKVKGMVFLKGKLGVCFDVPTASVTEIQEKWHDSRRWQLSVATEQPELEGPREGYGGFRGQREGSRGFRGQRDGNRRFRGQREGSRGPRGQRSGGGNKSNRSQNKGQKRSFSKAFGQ
Procedure: as §1, §2, §3, §4, §5, §6, §7, §8, §9, §10, §11, §12, §13, §14, §15, §16, §17, §18, §19, §20, §21, §22, §23, §24, §25, §26, §27, §28

Chain of proteins of HEK293T cells transiently overexpressing caspase-6 (Homo sapiens, UniProt P12004) (P12004 whole entry): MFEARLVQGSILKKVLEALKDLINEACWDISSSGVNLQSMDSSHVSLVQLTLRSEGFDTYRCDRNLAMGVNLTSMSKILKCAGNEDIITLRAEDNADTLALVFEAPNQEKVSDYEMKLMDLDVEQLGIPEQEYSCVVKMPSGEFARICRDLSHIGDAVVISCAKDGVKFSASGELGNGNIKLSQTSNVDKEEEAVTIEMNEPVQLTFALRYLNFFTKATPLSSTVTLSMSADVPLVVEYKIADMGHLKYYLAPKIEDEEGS

C=CS(=O)(=O)N1C[C@H](C(=O)Nc2ccc(OC(F)(F)F)cc2)C[C@@H](c2ccccc2)C1 [3a]
enrich.exp.med [1]: 0.7926
enrich.exp.med [2]: 0.6316
enrich.exp.med [3]: 0.7281
enrich.exp.med [4]: 0.6236
enrich.exp.med [5]: 0.6264
enrich.exp.med [6]: 0.8512
enrich.exp.med [7]: 0.6188
enrich.exp.med [8]: 0.809
enrich.exp.med [9]: 0.5956
enrich.exp.med [10]: 0.7021
enrich.exp.med [11]: 0.7055
enrich.exp.med [12]: 0.6036
enrich.exp.med [13]: 0.6631
enrich.exp.med [14]: 0.8327
enrich.exp.med [15]: 0.6419
enrich.exp.med [16]: 0.9271
enrich.exp.med [17]: 0.6295
enrich.exp.med [18]: 0.7909
enrich.exp.med [19]: 0.5835
enrich.exp.med [20]: 0.6506

From article PMC10176470, “Engaging a Non-catalytic Cysteine Residue Drives Potent and Selective Inhibition of Caspase-6” (Journal of the American Chemical Society, 2023)
